Where a name gives a salt, the structure may show the parent alone.

The source of these data is patent US8067468B2, “L-carnitine and alkanoyl L-carnitine phytates and process for preparing the same” (priority 2009, dated 2011).

Data set [1] in a line: pH value of the product (c=1% H2O). It counts as physicochemical. On the procedure: According to one embodiment, the solution (having a pH value of about 4) was further stirred 20 minutes. According to one embodiment, the solution was concentrated on an evaporator under a vacuum at 50° C. According to one embodiment, the residue was repeatedly (3 times) taken up using anhydrous ethanol under a vacuum to dry the solution as much as possible.

Data set [2] can be described thus: Odor of the dried product (sign of decomposition / acid smell). Format: physicochemical. To be noted: dried solid product. On the procedure: According to one embodiment, 96.7 grams (0.6 mole) of L-carnitine inner salt (C7H15NO3, molecular weight 161.20) was added to a 50% aqueous solution (having a pH value <1) of 66.0 grams (0.1 mole) phytic acid and stirred at room temperature resulting in an exothermic reaction. […] According to one embodiment, the solution (having a pH value of about 4) was further stirred 20 minutes. […] According to one embodiment, the residue is further dried in a vacuum oven at 50° C. to obtain 166.2 grams of white solid powder with an almost quantitative yield (i.e., the white solid powder contains 2% H2O).
According to one embodiment, 122.09 grams (0.6 mole) of acetyl L-carnitine inner salt (C9H17NO4, molecular weight 203.24) was added to a 50% aqueous solution (having a pH value <1) of 66.0 grams (0.1 mole) phytic acid and stirred at room temperature resulting in an exothermic reaction. […] According to one embodiment, the residue is further dried in a vacuum oven at 50° C. to obtain 192.7 grams of white solid powder with an almost quantitative yield (i.e., the white solid powder contains 2% H2O). […]

For data set [3] the following is noted: cited from earlier work.
For data set [4] the following is noted: post-administration, independent of route; cited from earlier work.
The subject of data set [5] is human mammary cancer cell line. To be noted: incubated with a human mammary cancer cell line; cited from earlier work.
Another data set deals with mice. As to the kind of experiment: Single dose oral acute toxicity study (LD50). It counts as in vivo. On the procedure: The single dose oral acute toxicity of L-carnitine phytate (in a 6:1 mole ratio) was evaluated in mice. Five dosages (25, 20, 15, 10, and 5 g/Kg) were orally administrated to five groups of mice in which each group had five male and five female mice. After dosing, the five groups of mice were observed and daily records (for 14 days) were made of their general conditions, toxic response, and deaths. All of the dead mice were necropsied, in which each of the body's thorace and abdomen were opened, and each heart, liver, spleen, lung, kidney, and intestine were examined and recorded.

On to `CC(C)C(=O)O[C@H](CC(=O)O)C[N+](C)(C)C` [Example Embodiment 6, Isobutyryl L-Carnitine Phytate (in a 6:1 mole ratio)], for which, in data set [1], the pH value stood at 4.
In data set [1], “Propinoyl L-Carnitine Phytate (in a 6:1 mole ratio) [Example Embodiment 4]” had a pH value of 4. Besides, the odor entry in data set [2] is on record as “odorless”.
Turning to `O=P(O)(O)O[C@H]1[C@H](OP(=O)(O)O)[C@@H](OP(=O)(O)O)[C@H](OP(=O)(O)O)[C@@H](OP(=O)(O)O)[C@H]1OP(=O)(O)O` [phytic acid, Phytic acid], in data set [3], the “pKa of the remaining three very weakly acidic sites” value is listed as “greater than 10”. The “pKa of the six strongly acidic proton dissociation sites” value in data set [3] (first dissociation proton of each phosphate group) is given as around 1.5. For the same compound, in data set [4], the “time to reach targeted tumor tissue” value is on record as “as early as one hour post-administration”. Moreover, the “time of first detection of IP6 in cells” value in data set [5] is “as early as one minute post-incubation”.
As for `C[N+](C)(C)C[C@H](O)CC(=O)[O-]` [L-carnitine's inner salt, L-carnitine inner salt], the pKa value in data set [3] is listed as 3.8.
On to “Butyryl L-Carnitine Phytate (in a 6:1 mole ratio) [Example Embodiment 5]”, for which the pH value in data set [1] was determined as 4.
Regarding “L-Carnitine Phytate (in a 6:1 mole ratio) [Example Embodiment 2]”, the “necropsy findings in hearts, livers, spleens, lungs, kidneys and intestines” value with mice (single oral dose 5-25 g/Kg, dead mice necropsied) was “not any obvious abnormalities observed”. Besides, in the data set on mice (single oral dose, observed for 14 days), the “acute oral LD50” value was 14860 mg/kg.
`CC(=O)O[C@H](CC(=O)O)C[N+](C)(C)C` [Example Embodiment 3, Acetyl L-Carnitine Phytate (in a 6:1 mole ratio)] showed a pH value in data set [1] of 4. Further, the odor entry in data set [2] is “odorless”.
